In BindingDB's records for doi:10.1016/j.bmc.2019.03.049 (Zhuhai Campus of Zunyi Medical University, 2019):

target: Hepatocyte growth factor receptor (Homo sapiens) (UniProt P08581); test: Inhibition of c-MET (unknown origin) using FAM-labelled peptide as substrate measured after 10 mins by mobility shift assay
Sequence (P08581 whole entry, looked up): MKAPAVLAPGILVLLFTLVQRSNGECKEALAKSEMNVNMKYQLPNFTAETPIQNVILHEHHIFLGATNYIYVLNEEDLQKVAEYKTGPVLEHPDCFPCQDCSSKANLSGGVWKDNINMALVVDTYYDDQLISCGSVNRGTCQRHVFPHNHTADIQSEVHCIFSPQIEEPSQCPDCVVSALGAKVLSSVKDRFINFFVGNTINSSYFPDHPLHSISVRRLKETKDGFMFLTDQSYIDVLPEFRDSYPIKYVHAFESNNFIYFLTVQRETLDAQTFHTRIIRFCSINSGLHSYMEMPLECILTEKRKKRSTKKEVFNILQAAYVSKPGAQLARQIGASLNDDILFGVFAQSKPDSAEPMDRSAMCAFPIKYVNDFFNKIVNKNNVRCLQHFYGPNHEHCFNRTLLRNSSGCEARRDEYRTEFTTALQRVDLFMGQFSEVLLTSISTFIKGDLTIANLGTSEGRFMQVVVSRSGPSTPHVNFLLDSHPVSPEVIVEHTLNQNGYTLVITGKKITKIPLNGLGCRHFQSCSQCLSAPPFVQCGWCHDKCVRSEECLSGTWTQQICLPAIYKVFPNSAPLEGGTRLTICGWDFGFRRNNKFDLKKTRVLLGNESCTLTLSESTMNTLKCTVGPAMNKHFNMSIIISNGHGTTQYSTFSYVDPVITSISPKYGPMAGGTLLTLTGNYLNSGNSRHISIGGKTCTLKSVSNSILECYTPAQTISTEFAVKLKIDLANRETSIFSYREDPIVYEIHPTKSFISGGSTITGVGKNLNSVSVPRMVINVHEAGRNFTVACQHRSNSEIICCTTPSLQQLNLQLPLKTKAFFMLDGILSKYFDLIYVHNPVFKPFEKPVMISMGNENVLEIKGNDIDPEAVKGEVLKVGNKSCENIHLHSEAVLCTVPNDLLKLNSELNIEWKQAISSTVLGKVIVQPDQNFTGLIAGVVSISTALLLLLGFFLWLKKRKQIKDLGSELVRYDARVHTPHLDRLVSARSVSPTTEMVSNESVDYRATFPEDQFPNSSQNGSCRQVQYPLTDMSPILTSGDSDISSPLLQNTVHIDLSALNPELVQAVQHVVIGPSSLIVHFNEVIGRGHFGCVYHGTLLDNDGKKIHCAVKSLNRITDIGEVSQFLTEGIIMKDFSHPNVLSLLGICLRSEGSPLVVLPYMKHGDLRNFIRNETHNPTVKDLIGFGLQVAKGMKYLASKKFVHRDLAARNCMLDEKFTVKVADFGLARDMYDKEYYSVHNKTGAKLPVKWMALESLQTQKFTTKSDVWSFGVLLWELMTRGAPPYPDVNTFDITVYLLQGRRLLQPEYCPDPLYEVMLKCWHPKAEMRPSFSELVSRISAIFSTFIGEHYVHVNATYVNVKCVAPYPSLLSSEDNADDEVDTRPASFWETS

| IC50 | Compound |
| --- | --- |
| 4.3 µM | COc1cc2c(Oc3ccc(C4SCC(=O)N4NC(=O)Nc4ccc(F)cc4)cc3)ccnc2cc1OCCCN1CCOCC1 (stereo not drawn) |
| 3.35 µM | COc1cc2c(Oc3ccc(C4SCC(=O)N4NC(=O)Nc4ccc(F)cc4F)cc3)ccnc2cc1OCCCN1CCOCC1 (stereo not drawn) |
| 4.52 µM | COc1cc2c(Oc3ccc(C4SCC(=O)N4NC(=O)Nc4ccccc4)cc3)ccnc2cc1OCCCN1CCOCC1 (stereo not drawn) |
